From patent US11040028B2, “Penicinotam derivative, preparation method and use thereof” (OCEAN UNIVERSITY OF CHINA, priority 2017, dated 2021)

Assays:
Assay type in all cases: cell-based
[1] = tested on: human embryonic lung fibroblast IMR-90; experiment: Anti-fibrosis activity test: inhibition of proliferation of human embryonic lung fibroblast IMR-90 (CCK-8)
How it was run: (§1)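 Using CCK-8 colorimetry (450 nm), the study assessed growth inhibition after 48 h compound exposure; plating density was 2×10^4 cells/mL with 24 h attachment beforehand. IC50 was calculated from (1−Ai/Ao)×100%.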

[2] = tested on: human fibrosarcoma cells HT-1080; experiment: Anti-fibrosis activity test: inhibition of proliferation of human fibrosarcoma cells HT-1080 (CCK-8); details: Homo sapiens, HT-1080, 48 h
How it was run: as §1

[3] = tested on: mouse macrophages (RAW264.7); experiment: Lipopolysaccharide-induced NO secretion in macrophages (Griess); details: Mus musculus, RAW264.7, 24 h, RAW264.7, LPS 1 μg/ml, a/b isomers given as first/second symbol, read-out: IC50 (μM), inhibition of lipopolysaccharide-induced NO secretion in macrophages
How it was run: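 Indomethacin and resveratrol served as positive controls while compounds were tested across concentrations on LPS-stimulated (1 μg/ml, 24 h) RAW264.7 cells. NO output was quantified colorimetrically (Griess, 548 nm).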

[4] = tested on: human dermal fibroblasts CCC-ESF-1; experiment: Anti-fibrosis activity test: inhibition of proliferation of human dermal fibroblasts CCC-ESF-1 (CCK-8); details: Fibroblast
How it was run: as §1

[5] = tested on: human lung fibroblasts HFL1; experiment: Anti-fibrosis activity test: inhibition of proliferation of human lung fibroblasts HFL1 (CCK-8); details: Homo sapiens, HFL1, 48 h
How it was run: as §1

[6] = tested on: cardiac fibroblast RAT-iCell-C002; experiment: Anti-fibrosis activity test: inhibition of proliferation of cardiac fibroblast RAT-iCell-C002 (CCK-8); details: Cardiac fibroblast, 48 h
How it was run: as §1

BHK-21 cells = experiment: Anti-fibrosis activity test: inhibition of BHK-21 cell proliferation (CCK-8); details: Mesocricetus auratus, BHK-21, 48 h
How it was run: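 Each concentration was tested in triplicate on adhered BHK-21 cells for 48 h, with pirfenidone as reference. A 2 h CCK-8 incubation preceded absorbance reading at 450 nm, and IC50 was obtained from percent inhibition versus blank.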

[7] = tested on: human hepatic stellate cells LX-2; experiment: Anti-fibrosis activity test: inhibition of proliferation of human hepatic stellate cells LX-2 (CCK-8); details: Homo sapiens, 48 h
How it was run: as §1

[8] = human embryonic lung fibroblast IMR-90, CCK-8, 48 hours
[9] = human fibrosarcoma cells HT-1080, CCK-8, 48 hours
[10] = human dermal fibroblasts CCC-ESF-1, CCK-8, 48 hours
[11] = human lung fibroblasts HFL1, CCK-8, 48 hours
[12] = cardiac fibroblast RAT-iCell-C002, CCK-8, 48 hours
[13] = CCK-8, 48 hours after administration
[14] = human hepatic stellate cells LX-2, CCK-8, 48 hours
[15] = Homo sapiens, IMR-90 cells, 48 h, CCK-8
[16] = Homo sapiens, CCC-ESF-1 cells, 48 h, CCK-8

IC50 [2, 9] | IC50 [3] | IC50 ([2]; HT-1080 cells, 48 h, CCK-8) | Structure (SMILES) | IC50 [1, 8] | IC50 [4, 10] | IC50 [5, 11] | IC50 [6, 12] | IC50 (BHK-21 cells; [13]) | IC50 [7, 14] | IC50 [1, 15] | IC50 [4, 16] | IC50 ([5]; HFL1 cells, 48 h, CCK-8) | IC50 ([6]; RAT-iCell-C002 cells, CCK-8) | IC50 (BHK-21 cells; 48 h, CCK-8) | IC50 ([7]; LX-2, 48 h, LX-2 cells, CCK-8)
0.05 to 5 mM | 1 to 10 µM |  | O=C1c2c(nc3cc(N4CCNCC4)c(F)cc3c2OC2CC2)-c2cccn21 [Compound 340b, 9-cyclopropoxy-7-fluoro-6-(piperazin-1-yl)-10H-pyrrolizino[1,2-b]quinolin-10-one] | 0.05 to 5 mM | 0.05 to 5 mM | 0.05 to 5 mM | 0.05 to 5 mM | 0.05 to 5 mM | 0.05 to 5 mM |  |  |  |  |  | 
0.05 to 5 mM | 1 to 10 µM |  | N#Cc1cccc2nc3c(c(OCc4cccc(F)c4)c12)C(=O)n1cccc1-3 [Compound 463b, 9-((3-fluorobenzyl)oxy)-10-oxo-10H-pyrrolizino[1,2-b]quinoline-8-carbonitrile] | 0.05 to 5 mM | 0.05 to 5 mM | 0.05 to 5 mM | 0.05 to 5 mM | 0.05 to 5 mM | 0.05 to 5 mM |  |  |  |  |  | 
 | 1 to 10 µM | 0.05 to 5 mM | O=C1c2c(c(=O)c3ccccc3n2CCCCN2CCCCC2)-c2cccn21 [Compound 788a, 6-(4-(Piperidin-1-yl)butyl)-5H-pyrrolizino[2,1-b]quinoline-5,11(6H)-dione] |  |  |  |  |  |  | 0.05 to 5 mM | 0.05 to 5 mM | 0.05 to 5 mM | 0.05 to 5 mM | 0.05 to 5 mM | 0.05 to 5 mM
 | 0.1 to 1 µM | 0.05 to 5 mM | O=C1c2c(c(=O)c3ccccc3n2CCN2CCNCC2)-c2cccn21 [Compound 792a, 6-(2-(Piperazin-1-yl)ethyl)-5H-pyrrolizino[2,1-b]quinoline-5,11(6H)-dione] |  |  |  |  |  |  | 0.05 to 5 mM | < 0.05 mM | 0.05 to 5 mM | 0.05 to 5 mM | 0.05 to 5 mM | 0.05 to 5 mM
 | 1 to 10 µM | 0.05 to 5 mM | Cc1ccc(C)c2c(=O)c3c([nH]c12)C(=O)n1cccc1-3 [Compound 783a, 7,10-Dimethyl-5H-pyrrolizino[2,1-b]quinoline-5,11(6H)-dione] |  |  |  |  |  |  | 0.05 to 5 mM | 0.05 to 5 mM | 0.05 to 5 mM | 0.05 to 5 mM | < 0.05 mM | 0.05 to 5 mM
0.05 to 5 mM | 1 to 10 µM |  | O=C1c2c([nH]c3cccc(F)c3c2=O)-c2cccn21 [Compound 467a, 8-Fluoro-9H-pyrrolizino[1,2-b]quinoline-9,10(4H)-dione] | 0.05 to 5 mM | 0.05 to 5 mM | 0.05 to 5 mM | 0.05 to 5 mM | < 0.05 mM | 0.05 to 5 mM |  |  |  |  |  | 
0.05 to 5 mM | 0.1 to 1 µM |  | O=C1c2c(n(Cc3ccc(Cl)cc3)c3c(F)cccc3c2=O)-c2cccn21 [Compound 453a, 4-(4-Chlorobenzyl)-5-fluoro-9H-pyrrolizino[1,2-b]quinoline-9,10(4H)-dione] | 0.05 to 5 mM | 0.05 to 5 mM | 0.05 to 5 mM | 0.05 to 5 mM | 0.05 to 5 mM | 0.05 to 5 mM |  |  |  |  |  | 
0.05 to 5 mM | 1 to 10 µM |  | CC(C)=CCn1c2c(c(=O)c3cc(F)c(N4CCNCC4)cc31)C(=O)n1cccc1-2 [Compound 354a, 7-Fluoro-4-(3-methylbut-2-en-1-yl)-6-(piperazin-1-yl)-9H-pyrrolizino[1,2-b]quinoline-9,10(4H)-dione] | 0.05 to 5 mM | 0.05 to 5 mM | 0.05 to 5 mM | < 0.05 mM | 0.05 to 5 mM | 5 to 20 mM |  |  |  |  |  | 
 | 1 to 10 µM | 0.05 to 5 mM | CCOCCCn1c2c(c(=O)c3ccccc31)-c1cccn1C2=O [Compound 791a, 6-(3-Ethoxypropyl)-5H-pyrrolizino[2,1-b]quinoline-5,11(6H)-dione] |  |  |  |  |  |  | 0.05 to 5 mM | 0.05 to 5 mM | 0.05 to 5 mM | 0.05 to 5 mM | < 0.05 mM | 0.05 to 5 mM
0.05 to 5 mM | 1 to 10 µM |  | O=C1c2c(n(Cc3ccc(F)cc3)c3cc(Cl)ccc3c2=O)-c2cccn21 [Compound 502a, 6-Chloro-4-(4-fluorobenzyl)-9H-pyrrolizino[1,2-b]quinoline-9,10(4H)-dione] | 0.05 to 5 mM | 0.05 to 5 mM | 0.05 to 5 mM | < 0.05 mM | 0.05 to 5 mM | 0.05 to 5 mM |  |  |  |  |  | 
0.05 to 5 mM | 1 to 10 µM |  | N#Cc1ccc2nc3c(c(Oc4ccc(Cl)cc4)c2c1)C(=O)n1cccc1-3 [Compound 210b, 9-(4-chlorophenoxy)-10-oxo-10H-pyrrolizino[1,2-b]quinoline-7-carbonitrile] | 0.05 to 5 mM | 0.05 to 5 mM | 0.05 to 5 mM | 0.05 to 5 mM | 0.05 to 5 mM | 0.05 to 5 mM |  |  |  |  |  | 
0.05 to 5 mM | 1 to 10 µM |  | O=C1c2c(nc3c(C(F)(F)F)cccc3c2OCc2cccc(Cl)c2)-c2cccn21 [Compound 455b, 9-((3-chlorobenzyl)oxy)-5-(trifluoromethyl)-10H-pyrrolizino[1,2-b]quinolin-10-one] | 0.05 to 5 mM | 0.05 to 5 mM | 5 to 20 mM | 0.05 to 5 mM | 0.05 to 5 mM | 0.05 to 5 mM |  |  |  |  |  | 
0.05 to 5 mM | 10 to 50 µM |  | O=C1c2cc(F)ccc2N(c2ccc(Cl)cc2)C2c3cccn3C(=O)C12 (stereo not shown) [Compound 133a, 4-(4-Chlorophenyl)-7-fluoro-3b,9a-dihydro-9H-pyrrolizino[1,2-b]quinoline-9,10(4H)-dione] | 5 to 20 mM | 0.05 to 5 mM | 0.05 to 5 mM | 0.05 to 5 mM | 0.05 to 5 mM | 0.05 to 5 mM |  |  |  |  |  | 
0.05 to 5 mM | 1 to 10 µM |  | O=C1c2c(nc3ccc(OC(F)(F)F)cc3c2Oc2ccc(Cl)cc2)-c2cccn21 [Compound 300b, 9-(4-chlorophenoxy)-7-(trifluoromethoxy)-10H-pyrrolizino[1,2-b]quinolin-10-one] | 0.05 to 5 mM | 0.05 to 5 mM | 0.05 to 5 mM | 0.05 to 5 mM | 0.05 to 5 mM | 0.05 to 5 mM |  |  |  |  |  | 
0.05 to 5 mM | 1 to 10 µM |  | O=C1c2c(nc3ccc(F)cc3c2OCCO)-c2cccn21 [Compound 114b, 7-fluoro-9-(2-hydroxyethoxy)-10H-pyrrolizino[1,2-b]quinolin-10-one] | 0.05 to 5 mM | 0.05 to 5 mM | 0.05 to 5 mM | 0.05 to 5 mM | 0.05 to 5 mM | 0.05 to 5 mM |  |  |  |  |  | 
0.05 to 5 mM | 1 to 10 µM |  | N#Cc1ccc2c(c1)c(=O)c1c(n2-c2ccc(Cl)cc2)-c2cccn2C1=O [Compound 210a, 4-(4-Chlorophenyl)-9,10-dioxo-4,10-dihydro-9H-pyrrolizino[1,2-b]quinoline-7-carbonitrile] | 0.05 to 5 mM | 0.05 to 5 mM | 0.05 to 5 mM | 0.05 to 5 mM | 0.05 to 5 mM | 0.05 to 5 mM |  |  |  |  |  | 
0.05 to 5 mM | 1 to 10 µM |  | O=C1c2c(nc3ccc(F)cc3c2OC2CC2)-c2cccn21 [Compound 144b, 9-cyclopropoxy-7-fluoro-10H-pyrrolizino[1,2-b]quinolin-10-one] | 0.05 to 5 mM | 0.05 to 5 mM | 0.05 to 5 mM | 0.05 to 5 mM | 0.05 to 5 mM | < 0.05 mM |  |  |  |  |  | 
0.05 to 5 mM | 1 to 10 µM |  | O=C1c2c([nH]c3cc(N4CCNCC4)c(OC(F)(F)F)cc3c2=O)-c2cccn21 [Compound 409a, 6-(Piperazin-1-yl)-7-(trifluoromethoxy)-9H-pyrrolizino[1,2-b]quinoline-9,10(4H)-dione] | 0.05 to 5 mM | 0.05 to 5 mM | 0.05 to 5 mM | 0.05 to 5 mM | 0.05 to 5 mM | 0.05 to 5 mM |  |  |  |  |  | 
 | 10 to 50 µM | 0.05 to 5 mM | Cc1cccc2c(=O)c3c([nH]c12)C(=O)n1cccc1-3 [Compound 779a, 7-Methyl-5H-pyrrolizino[2,1-b]quinoline-5,11(6H)-dione] |  |  |  |  |  |  | 0.05 to 5 mM | 0.05 to 5 mM | 0.05 to 5 mM | 0.05 to 5 mM | 0.05 to 5 mM | 0.05 to 5 mM
0.05 to 5 mM | 1 to 10 µM |  | O=C1c2c(nc3ccc(Cl)cc3c2O)-c2cccn21 [Compound 180b, 7-chloro-9-hydroxy-10H-pyrrolizino[1,2-b]quinolin-10-one] | 0.05 to 5 mM | 0.05 to 5 mM | 0.05 to 5 mM | 0.05 to 5 mM | 0.05 to 5 mM | 0.05 to 5 mM |  |  |  |  |  | 
